# Laboratory results as given in US6107291A, “Azepine or larger medium ring derivatives and methods of use” (Amgen Inc., priority 1998, dated 2000).
# B1: TNFR-55: soluble receptors for TNF-α (protein, UniProt P19438 30-211, looked up)
# extracellular domain: LVPHLGDREKRDSVCPQGKYIHPQNNSICCTKCHKGTYLYNDCPGPGQDTDCRECESGSFTASENHLRHCLSCSKCRKEMGQVEISSCTVDRDTVCGCRKNQYRHYWSENLFQCFNCSLCLNGTVHLSCQEKQNTVCTCHAGFFLRENECVSCSNCKKSLECTKLCLPQIENVKGTEDSGTT
# modifications: extracellular domain
# notes: soluble receptors for TNF-α
# Key:
# [1] = tested on: TNF-α; conditions: Phase II human trial, rheumatoid arthritis; cited from earlier work
# [2] = target: Human fibroblast stromelysin (HFS) (Homo sapiens, UniProt P08254); experiment: Human Fibroblast Stromelysin Assay (fluorogenic peptide substrate); type: biochemical
# Procedure: Human fibroblast stromelysin (HFS) activity is determined by using fluorogenic peptide substrate Dnp-Pro-b-Cyclohexyl-Ala-Gly-Cys(Me)-His-Ala-Lys-(N-methylanthranilic acid)-NH2. The N-terminus Dnp group and the C-terminus N-methyl-anthranilyl moiety (Nma) are fluorescence self-quenching until the peptide is cleaved at the Gly-Cys(me) bond. The fluorescence from the cleavage products is measured on a Bio-Tek Instrument FL500 fluorescence micro-plate reader (excitation at 360 nm, emission at 460 nm). […] The test compounds (at 100, 33 & 10 mM) are compared for their inhibition of HFS activity on the substrate against the activity of Actinonin and Ki's were determined on selected compounds.
# [3] = target: Human neutrophil collagenase (HNC) (Homo sapiens, UniProt P22894); experiment: Human Neutrophil Collagenase Assay (fluorogenic peptide substrate); type: biochemical
# Procedure: Human neutrophil collagenase (HNC) activity is determined by using fluorogenic peptide substrate Dnp-Pro-b-Cyclohexyl-Ala-Gly-Cys (Me)-His-Ala-Lys-(N-methylanthranilic acid)-NH2. The N-terminus Dnp group and the C-terminus N-methyl-anthranilyl moiety (Nma) are fluorescence self-quenching until the peptide is cleaved at the Gly-Cys(me) bond. The fluorescence from the cleavage products is measured on a Bio-Tek Instrument FL500 fluorescence micro-plate reader (excitation at 360 nm, emission at 460 nm). […] The test compounds (at 100, 33 & 10 mM) are compared for their inhibition of HNC activity on the substrate against the activity of Actinonin and Ki's were determined on selected compounds.
# [4] = tested on: TNF-α; conditions: soluble receptors for TNF-α; cited from earlier work
# Human neutrophil collagenase (HNC), sequence (P22894 101-467): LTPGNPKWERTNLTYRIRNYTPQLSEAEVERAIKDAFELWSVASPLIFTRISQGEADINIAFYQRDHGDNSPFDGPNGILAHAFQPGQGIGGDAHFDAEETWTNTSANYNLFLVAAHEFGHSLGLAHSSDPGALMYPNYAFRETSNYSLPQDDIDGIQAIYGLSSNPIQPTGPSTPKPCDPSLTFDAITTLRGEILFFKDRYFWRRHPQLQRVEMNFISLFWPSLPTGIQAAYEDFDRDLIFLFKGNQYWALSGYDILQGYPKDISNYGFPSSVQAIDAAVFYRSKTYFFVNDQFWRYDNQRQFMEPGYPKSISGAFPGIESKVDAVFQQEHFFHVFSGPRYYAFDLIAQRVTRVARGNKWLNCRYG
# Human fibroblast stromelysin (HFS), sequence (P08254 100-477): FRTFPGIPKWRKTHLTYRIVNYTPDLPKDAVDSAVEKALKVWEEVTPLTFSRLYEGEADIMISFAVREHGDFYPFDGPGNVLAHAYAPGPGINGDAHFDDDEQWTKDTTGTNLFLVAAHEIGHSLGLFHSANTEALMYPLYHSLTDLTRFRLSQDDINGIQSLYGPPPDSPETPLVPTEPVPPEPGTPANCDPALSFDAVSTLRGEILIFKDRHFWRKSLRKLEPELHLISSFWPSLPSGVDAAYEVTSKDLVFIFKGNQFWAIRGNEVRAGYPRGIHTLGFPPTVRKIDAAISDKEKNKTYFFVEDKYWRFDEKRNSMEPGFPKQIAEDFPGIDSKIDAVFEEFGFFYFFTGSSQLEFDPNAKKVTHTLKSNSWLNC
molecule,measurement,setting,value
"cA2: a monoclonal antibody specific to TNF-α, cA2",swollen joint count,[1],improvement in swollen joint count
Dnp-Pro-b-Cyclohexyl-Ala-Gly-Cys (Me)-His-Ala-Lys-(N-methylanthranilic acid)-NH2,Km,[2],0.051 µM
same,Km,[3],0.051 µM
B1,efficacy in animal models of TNF-α mediated disease states,[4],demonstrated efficacy in animal models of TNF-α mediated disease states
